Results published in ChEMBL document CHEMBL1201862, “PubChem BioAssay data set” (2004).
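Dose response: 5 concentrations. Exposure: 48 h. Format: 96-well plates. Endpoint: linear interpolation; highest concentration if not reached. GI50 is the concentration that inhibits growth by half.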 Active and inactive are the calls of the source. No stated cut-off is given here; in the data, active = GI50 up to about 1.1 µM and inactive = higher.

Experiments:
Test in all cases: inhibition of tumour cell growth, NCI panel, 48 h
HCT-116 = system: HCT-116
PC-3 = system: PC-3
A549 = system: A549
IGROV-1 = system: IGROV-1
UACC-257 = system: UACC-257
OVCAR-5 = system: OVCAR-5
OVCAR-3 = system: OVCAR-3
K562 = system: K562
SF-539 = system: SF-539
MDA-MB-435 = system: MDA-MB-435
SNB-19 = system: SNB-19
OVCAR-8 = system: OVCAR-8
RPMI-8226 = system: RPMI-8226
SN12C = system: SN12C
COLO 205 = system: COLO 205
CCRF-CEM = system: CCRF-CEM
HOP-92 = system: HOP-92
HL-60 = system: HL-60
HCC 2998 = system: HCC 2998
SR = system: SR

SMILES | GI50 (HCT-116) | GI50 (PC-3) | GI50 (A549) | GI50 (IGROV-1) | GI50 (UACC-257) | GI50 (OVCAR-5) | GI50 (OVCAR-3) | GI50 (K562) | GI50 (SF-539) | GI50 (MDA-MB-435) | GI50 (SNB-19) | GI50 (OVCAR-8) | GI50 (RPMI-8226) | GI50 (SN12C) | GI50 (COLO 205) | GI50 (CCRF-CEM) | GI50 (HOP-92) | GI50 (HL-60) | GI50 (HCC 2998) | GI50 (SR)
CCOC(=O)c1c(-c2cccc(Cl)c2)c(C(=O)OC)c(C)c2sc(C=O)nc12 | 7.14 µM (inactive) | 16.4 µM (inactive) | 49.9 µM (inactive) | 17.5 µM (inactive) | 31.8 µM (inactive) | 17.5 µM (inactive) | 15.2 µM (inactive) | 27.5 µM (inactive) | 18.1 µM (inactive) | 19.6 µM (inactive) | 98.9 µM (inactive) | 19.8 µM (inactive) | 14.1 µM (inactive) | 16.6 µM (inactive) | 17.5 µM (inactive) | 12.8 µM (inactive) | 15.7 µM (inactive) | 17.7 µM (inactive) | – | –
CCOP(=O)(OCC)C(Nc1ccc(C(=O)O)cc1)c1ccc(C(Nc2ccc(C(=O)O)cc2)P(=O)(OCC)OCC)cc1 (stereo not given) | > 100 µM (inactive) | > 100 µM (inactive) | > 100 µM (inactive) | > 100 µM (inactive) | > 100 µM (inactive) | > 100 µM (inactive) | > 100 µM (inactive) | > 100 µM (inactive) | – | > 100 µM (inactive) | > 100 µM (inactive) | > 100 µM (inactive) | > 100 µM (inactive) | – | > 100 µM (inactive) | > 100 µM (inactive) | > 100 µM (inactive) | – | > 100 µM (inactive) | –
O=C(CC1Sc2ccccc2NC1=O)Nc1ccc(Cl)cc1 (stereo not given) | 42.9 µM (inactive) | – | 91.8 µM (inactive) | 86.3 µM (inactive) | > 100 µM (inactive) | > 100 µM (inactive) | > 100 µM (inactive) | > 100 µM (inactive) | 50.2 µM (inactive) | – | > 100 µM (inactive) | 37.9 µM (inactive) | > 100 µM (inactive) | > 100 µM (inactive) | > 100 µM (inactive) | > 100 µM (inactive) | 19.6 µM (inactive) | > 100 µM (inactive) | 72.1 µM (inactive) | > 100 µM (inactive)
CCCNC(C#N)c1ccc(C(C#N)NCCC)cc1 (stereo not given) | 40.3 µM (inactive) | > 100 µM (inactive) | > 100 µM (inactive) | > 100 µM (inactive) | > 100 µM (inactive) | > 100 µM (inactive) | > 100 µM (inactive) | 37.8 µM (inactive) | > 100 µM (inactive) | 76.4 µM (inactive) | > 100 µM (inactive) | 29.9 µM (inactive) | – | > 100 µM (inactive) | 81.3 µM (inactive) | 24.4 µM (inactive) | 45.4 µM (inactive) | 40.8 µM (inactive) | > 100 µM (inactive) | –
O=C1Nc2ccccc2C(=O)/C1=C/NC(=S)NCCc1ccccc1 | > 100 µM (inactive) | 98.4 µM (inactive) | > 100 µM (inactive) | > 100 µM (inactive) | > 100 µM (inactive) | > 100 µM (inactive) | > 100 µM (inactive) | – | > 100 µM (inactive) | > 100 µM (inactive) | > 100 µM (inactive) | > 100 µM (inactive) | – | > 100 µM (inactive) | > 100 µM (inactive) | – | > 100 µM (inactive) | > 100 µM (inactive) | > 100 µM (inactive) | –
COc1cc(OC2OC(CO)C(O)C(O)C2O)c2c(O)c3c(=O)cc(C)oc3cc2c1 (stereo not given) | > 100 µM (inactive) | > 100 µM (inactive) | > 100 µM (inactive) | > 100 µM (inactive) | > 100 µM (inactive) | > 100 µM (inactive) | > 100 µM (inactive) | > 100 µM (inactive) | 94 µM (inactive) | > 100 µM (inactive) | > 100 µM (inactive) | > 100 µM (inactive) | > 100 µM (inactive) | – | > 100 µM (inactive) | > 100 µM (inactive) | > 10 µM (inactive) | > 100 µM (inactive) | > 100 µM (inactive) | –
Oc1cn(-c2ccc(Cl)cc2)nc1-c1nnc(-c2ccccc2)o1 | 0.0769 µM (active) | 1.43 µM (inactive) | 0.118 µM (active) | 0.989 µM (active) | 1.63 µM (inactive) | 1.58 µM (inactive) | 0.404 µM (active) | 0.122 µM (active) | 0.411 µM (active) | 0.152 µM (active) | 3.03 µM (inactive) | 0.277 µM (active) | 0.728 µM (active) | 1.43 µM (inactive) | 1.87 µM (inactive) | – | 18.8 µM (inactive) | 0.181 µM (active) | – | –
CC(C)=CCc1c(O)c(CC2=C(O)C(CC=C(C)C)(C(=O)C(C)C)C(O)=C(C)C2=O)c(O)c(C(=O)C(C)C)c1O (stereo not given) | 3.05 µM (inactive) | 5.66 µM (inactive) | 14.1 µM (inactive) | 10.9 µM (inactive) | 11.5 µM (inactive) | 11.9 µM (inactive) | 12.2 µM (inactive) | 8.61 µM (inactive) | 13.8 µM (inactive) | 16.2 µM (inactive) | 7.73 µM (inactive) | 12 µM (inactive) | 6.46 µM (inactive) | 18.8 µM (inactive) | 13 µM (inactive) | 5.78 µM (inactive) | 5.07 µM (inactive) | 39 µM (inactive) | 7.8 µM (inactive) | –
CN1c2ccccc2SC2C(c3ccccc3)=NOC21 (stereo not given) | 23.7 µM (inactive) | 18 µM (inactive) | 36.5 µM (inactive) | 41.6 µM (inactive) | > 10 µM (inactive) | 94.8 µM (inactive) | 56.1 µM (inactive) | 22.6 µM (inactive) | 27.7 µM (inactive) | – | 73.3 µM (inactive) | 49.3 µM (inactive) | – | 47.8 µM (inactive) | 22.7 µM (inactive) | > 100 µM (inactive) | – | 53.7 µM (inactive) | 23.3 µM (inactive) | 62.1 µM (inactive)
CC1=C(C(=O)NCc2ccccc2)C(c2ccco2)C(C(=O)NCc2ccccc2)=C(C)N1 | 71.4 µM (inactive) | – | > 100 µM (inactive) | > 100 µM (inactive) | > 100 µM (inactive) | > 100 µM (inactive) | > 100 µM (inactive) | 30.3 µM (inactive) | > 100 µM (inactive) | – | > 100 µM (inactive) | 78.5 µM (inactive) | > 100 µM (inactive) | 91.6 µM (inactive) | > 100 µM (inactive) | 45.8 µM (inactive) | 92.9 µM (inactive) | 17.8 µM (inactive) | 47 µM (inactive) | > 100 µM (inactive)
CN1Cc2cc3c(cc2-c2ccccc21)OCO3 | > 100 µM (inactive) | – | > 100 µM (inactive) | > 100 µM (inactive) | > 100 µM (inactive) | > 100 µM (inactive) | > 100 µM (inactive) | > 100 µM (inactive) | > 100 µM (inactive) | – | > 100 µM (inactive) | > 100 µM (inactive) | > 100 µM (inactive) | > 100 µM (inactive) | > 100 µM (inactive) | > 100 µM (inactive) | > 100 µM (inactive) | > 100 µM (inactive) | > 100 µM (inactive) | > 100 µM (inactive)
N#Cc1nnn(-c2ccc(Br)cc2)c1O | > 100 µM (inactive) | > 100 µM (inactive) | > 100 µM (inactive) | > 100 µM (inactive) | > 100 µM (inactive) | > 100 µM (inactive) | > 100 µM (inactive) | > 100 µM (inactive) | > 100 µM (inactive) | > 100 µM (inactive) | > 100 µM (inactive) | > 100 µM (inactive) | > 100 µM (inactive) | > 100 µM (inactive) | > 100 µM (inactive) | > 100 µM (inactive) | – | > 100 µM (inactive) | > 100 µM (inactive) | –
O=c1c2ccccc2ncn1COCc1ccccc1 | > 100 µM (inactive) | – | > 100 µM (inactive) | > 100 µM (inactive) | > 100 µM (inactive) | > 100 µM (inactive) | > 100 µM (inactive) | > 100 µM (inactive) | > 100 µM (inactive) | > 100 µM (inactive) | > 100 µM (inactive) | > 100 µM (inactive) | – | – | > 100 µM (inactive) | > 100 µM (inactive) | > 100 µM (inactive) | > 100 µM (inactive) | > 100 µM (inactive) | > 100 µM (inactive)
CC(=O)[C@H]1CC[C@@H]2[C@]1(C)CC=C1[C@]23C=C[C@]2(C[C@@H](O)CC[C@]12C)C(C(=O)O)C3C(=O)O (stereo not given in full) | > 100 µM (inactive) | > 100 µM (inactive) | > 100 µM (inactive) | > 100 µM (inactive) | > 100 µM (inactive) | > 100 µM (inactive) | > 100 µM (inactive) | > 100 µM (inactive) | > 100 µM (inactive) | > 100 µM (inactive) | > 100 µM (inactive) | > 100 µM (inactive) | > 100 µM (inactive) | > 100 µM (inactive) | > 100 µM (inactive) | > 100 µM (inactive) | > 100 µM (inactive) | > 100 µM (inactive) | > 100 µM (inactive) | –
COC(=O)[C@H](Cc1ccccc1)NP(=O)(O)OCC1C=CC(n2cc(C)c(=O)[nH]c2=O)O1 (stereo not given in full) | > 100 µM (inactive) | > 100 µM (inactive) | > 100 µM (inactive) | > 100 µM (inactive) | > 100 µM (inactive) | > 100 µM (inactive) | > 100 µM (inactive) | > 100 µM (inactive) | – | > 100 µM (inactive) | > 100 µM (inactive) | > 100 µM (inactive) | > 100 µM (inactive) | > 100 µM (inactive) | > 100 µM (inactive) | > 100 µM (inactive) | > 100 µM (inactive) | > 100 µM (inactive) | > 100 µM (inactive) | –
